Read-outs that look alike come from different tables or passages of the source.
What was measured:
rats = experiment: CFA-induced paw radiant heat hypersensitivity; assay type: in vivo, rat; conditions: HCl salt in 20% HPβCD, treatment time 30 min
Description: Each rat was placed in a test chamber on a thermally controlled glass surface and allowed to acclimate for approximately 10 min. A radiant thermal stimulus (beam of light) was then focused through the glass onto the plantar surface of the hind paw. The thermal stimulus was automatically shut off by a photoelectric relay when the paw was moved or when the cut-off time was reached (20 sec). An initial (baseline) response latency to the thermal stimulus was recorded for each animal prior to the injection of CFA. 24 h following intraplantar CFA injection, the response latency to the thermal stimulus was then re-evaluated and compared to the animal's baseline response time. […] Immediately following the post-CFA latency assessment, test compound or vehicle (usually solutol, hydroxypropyl methylcellulose, hydroxypropyl beta-cyclodextrin or PEG-400) was administered i.p. or p.o. to rats. Post-compound treatment withdrawal latencies were assessed at fixed time intervals, typically 30, 60 and 120 minutes. The percent reversal of hypersensitivity is calculated according to the following formula: % reversal=(post dose latency-predoselatency)/(baseline (pre CFA) latency-predose latency)×100.
Compound #12 (as its corresponding HCl salt) was administered in a solution of 20% HPβCD, at a dose of 30 mg/kg, i.p. and a treatment time of 30 min.

HeLa cells = experiment: 2-AG accumulation assay using HeLa cells; assay type: cell-based; conditions: Homo sapiens, HeLa cell homogenate, 2-AG accumulation relative to MAFP
Male Sprague Dawley rats [1] = experiment: Chronic constriction injury (CCI)-induced model of neuropathic pain, acetone-induced hypersensitivity; assay type: in vivo; conditions: HCl salt, 30 mg/kg oral dosing in 20% HPbCD
Source text: Male Sprague Dawley rats (225-450 g; n=5-8/treatment) were used to evaluate the ability of selected compounds of the Formula (I) to reverse CCI-induced cold hypersensitivity. Four loose ligatures of 4-0 chromic gut were surgically placed around the left sciatic nerve under inhalation anesthesia as described by Bennett et al (Bennett G J, Xie Y K. Pain 1988, 33(1): 87-107). Fourteen to 35 days following CCI surgery, subjects were placed in elevated observation chambers containing wire mesh floors, and five applications of acetone (0.05 mL/application separated by approximately 5 minutes) were spritzed onto the plantar surface of the paw using a multidose syringe. An abrupt withdrawal or lifting of the paw was considered a positive response. The number of positive responses was recorded for each rat over the five trials. Following baseline withdrawal determinations, compounds of formula (I) were administered in an appropriate vehicle, such as hydroxypropyl-β-cyclodextrin (HP β CD), methylcellulose, Methocel, 10% Solutol, or H2O, or the like, by the appropriate route, i.p. or p.o. The number of withdrawals were re-determined 1 to 4 h after compound administration. Results are presented as a percent inhibition of shakes, which was calculated for each subject as [1-(test compound withdrawals/pre-test withdrawals)]×100 and then averaged by treatment.

Male Sprague Dawley rats [2] = experiment: Visceral hyperalgesia model (colorectal distension, zymosan colitis); assay type: in vivo; conditions: 30 mg/kg, s.c.; 20 min after dosing; vehicle-treated rats 239.6±28.9% of control
Description: This protocol uses barostat-controlled, isobaric colorectal distensions (CRD) in rats to evaluate the potency and efficacy of test compounds in treating visceral hyperalgesia. Male Sprague Dawley rats, weighing 275-350 g, (Charles River Labs) were housed 2-4/cage in a temperature and humidity controlled room with a 12 h/12 h light/dark cycle and ad libitum access to food and water. One day after release from quarantine, rats were acclimated to progressively longer (30 min and, 4 h later, 45 min) periods of simple restraint in plexiglass devices (G-3, rat ECU; Braintree Scientific; Braintree Mass.). The rats were returned to their home cage overnight. […] The balloon pressure, which represents intracolonic pressure, was continuously recorded. […]
The following morning, colitis was induced by the intracolonic instillation of a 1.5-mL bolus of 2.5% (w/v) zymosan A (from Saccharomyces cerevisiae; Sigma Chemical Co., St. Louis) in 30% ethanol under light 70% CO2: 30% O2 anesthesia. […] The identical CRD stimuli were applied, and manometric VMRs were recorded and analyzed as described for the control phase of the experiment. […] CRD stimuli at 45 mmHg elicited peak responses in the control (pre-zymosan) condition; therefore, the responses of each rat were calculated as a percent of the manometric VMR at that pressure, recorded the day before induction of colitis; thus, each rat served as its own control. […]

[3] = compound @10 μM (second of two columns with the same head), read-out: Ex. 5 % MAFP @10 μM (second column)
[4] = compound @10 μM as printed (first of two columns with the same head), read-out: Ex. 5 % MAFP @10 μM (first column)

`O=C(c1ccc(-c2ccccc2)cc1)N1CC(N2CCN(c3ncccn3)CC2)C1` [Compound #12, Biphenyl-4-yl-[3-(4-pyrimidin-2-yl-piperazin-1-yl)-azetidin-1-yl]-methanone] was tested, and the reversal of hypersensitivity (rats; 30 mg/kg, i.p.) was 90.3%, the ED50 (rats; Rattus norvegicus, ip, 0.5 h) was 0.9 mg/kg and the Emax at 10 µM (HeLa cells; [3]) was 108%. For the same molecule, the Emax at 10 µM (HeLa cells; [4]) was 63.1%, the “Percent Inhibition (of shakes)” value (Male Sprague Dawley rats [1]; pretreatment time 1 hr) was 57.1% and the “Percent Inhibition (of shakes)” value (Male Sprague Dawley rats [1]; pretreatment time 2 hr) was 74.3%. The “Percent Inhibition (of shakes)” value (Male Sprague Dawley rats [1]; pretreatment time 3 hr) was 80.0%, the “Percent Inhibition (of shakes)” value (Male Sprague Dawley rats [1]; pretreatment time 4 hr) was 48.6% and the “hyperalgesic response (manometric VMR) to 45 mmHg CRD” value (Male Sprague Dawley rats [2]) was 103.8±22.1 % of control.

Work on `O=C(/C=C/c1ccc(SC(F)(F)F)cc1)N1CC(N2CCN(c3ccccn3)CC2)C1` [compound 41, 1-Pyridin-2-yl-4-{1-[(2E)-3-(4-[(trifluoromethyl)sulfanyl]phenyl}prop-2-enoyl]azetidin-3-yl}piperazine] yielded an Emax at 10 µM (HeLa cells; [3]) of 66.8%.

In the case of `O=C(c1cccc(-c2ccc(F)cc2)c1)N1CC(N2CCN(c3ccccn3)CC2)C1` [compound 52, 1-{1-[(4′-Fluorobiphenyl-3-yl)carbonyl]azetidin-3-yl}-4-pyridin-2-ylpiperazine], the Emax at 10 µM (HeLa cells; [3]) is reported as 52.2% and the Emax at 10 µM (HeLa cells; [4]) is reported as 28%.

Molecule `O=C1c2ccccc2-c2ccc(C(=O)N3CC(N4CCN(c5ccccn5)CC4)C3)cc21` [compound 59, 2-{[3-(4-Pyridin-2-ylpiperazin-1-yl)azetidin-1-yl]carbonyl}-9H-fluoren-9-one] has an Emax at 10 µM (HeLa cells; [3]) of 39.7% and an Emax at 10 µM (HeLa cells; [4]) of 10.2%.

`O=C(c1ccc(-c2ccccc2)c(F)c1)N1CC(N2CCN(c3ccccn3)CC2)C1` [compound 60, 1-{1-[(2-Fluorobiphenyl-4-yl)carbonyl]azetidin-3-yl}-4-pyridin-2-ylpiperazine] gave an Emax at 10 µM (HeLa cells; [3]) of 57.8% and an Emax at 10 µM (HeLa cells; [4]) of 28.2%.

`O=C(c1ccccc1)c1ccc(C(=O)N2CC(N3CCN(c4ccccn4)CC3)C2)cc1` [compound 74, Phenyl(4-{[3-(4-pyridin-2-ylpiperazin-1-yl)azetidin-1-yl]carbonyl}phenyl)methanone] was tested, and the Emax at 10 µM (HeLa cells; [3]) was 29.5%.

`O=C(c1ccccc1)c1cccc(C(=O)N2CC(N3CCN(c4ccccn4)CC3)C2)c1` [compound 86, Phenyl(3-{[3-(4-pyridin-2-ylpiperazin-1-yl)azetidin-1-yl]carbonyl}phenyl)methanone] was tested, and the Emax at 10 µM (HeLa cells; [3]) was 10.4%.

With `O=C(Cc1ccc(-c2ccccc2)cc1)N1CC(N2CCN(c3ccccn3)CC2)C1` [compound 88, 1-[1-(Biphenyl-4-ylacetyl)azetidin-3-yl]-4-pyridin-2-ylpiperazine] the Emax at 10 µM (HeLa cells; [3]) was 2.8%.

Molecule `O=C(c1cccc2c1Cc1ccccc1-2)N1CC(N2CCN(c3ccccn3)CC2)C1` [compound 96, 1-[1-(9H-Fluoren-1-ylcarbonyl)azetidin-3-yl]-4-pyridin-2-ylpiperazine] has an Emax at 10 µM (HeLa cells; [3]) of 0%.

For `O=C(c1ccc(OCc2ccccc2)cc1)N1CC(N2CCN(c3ncccn3)CC2)C1` [compound 111, 2-[4-(1-{[4-(Benzyloxy)phenyl]carbonyl}azetidin-3-yl)piperazin-1-yl]pyrimidine], the Emax at 10 µM (HeLa cells; [3]) was 106%.

Work on `O=C(c1ccc(OCc2ccccc2)cc1)N1CC(N2CCN(c3ccccn3)CC2)C1` [compound 112, 1-(1-{[4-(Benzyloxy)phenyl]carbonyl}azetidin-3-yl)-4-pyridin-2-ylpiperazine] yielded an Emax at 10 µM (HeLa cells; [3]) of 79.2%.

Molecule `CC(C)(C)OC(=O)N1CCC(c2ccc(C(=O)N3CC(N4CCN(c5ccccn5)CC4)C3)cc2)CC1` [compound 122, tert-Butyl 4-(4-{[3-(4-pyridin-2-ylpiperazin-1-yl)azetidin-1-yl]carbonyl}phenyl)piperidine-1-carboxylate] has an Emax at 10 µM (HeLa cells; [3]) of 67.8%.

Reference: US20130184251A1, “HETEROAROMATIC AND AROMATIC PIPERAZINYL AZETIDINYL AMIDES AS MONOACYLGLYCEROL LIPASE INHIBITORS” (Janssen Pharmaceutica, NV, priority 2009, published 2013)
